Assay in all cases: MIC, agar dilution test (isosensitest medium)
What all share (type): cell-based

For one assay, the system named is Klebsiella 6318. From the text:
(§1) Agar dilution test (isosensitest medium); Denley multipoint inoculator

Another assay relates to Proteus 1875.
Excerpt: as §1

In a further assay the test system is Staph. 133.
Excerpt: as §1

The next assay has as its system Pseudomonas Ellsworth.
Excerpt: as §1

Another assay relates to Staph. 1756.
Excerpt: as §1

The subject of the next assay is Staph. F 422.
Excerpt: as §1

For another assay, the system named is Klebsiella 57 USA.
Excerpt: as §1

The next assay deals with E. coli 4418. The conditions noted are these: Escherichia coli.
Excerpt: as §1

A further assay has as its system Proteus Vulg. 1017.
Excerpt: as §1

Another assay has as its system Pseudomonas Walter.
Excerpt: as §1

The test system of a further assay is Strepto 9790.
Excerpt: as §1

Another assay concerns E. coli T 7. The conditions noted are these: Escherichia coli, T7.
Excerpt: as §1

The test system of the next assay is Klebsiella 63.
Excerpt: as §1

Another assay relates to E. coli A 261. The conditions noted are these: Escherichia coli, A261.
Excerpt: as §1

In the next assay the test system is Providencia 12012.
Excerpt: as §1

Setting [1] is: Klebsiella 6318, agar dilution, read-out: MIC.
The mark [2] stands for this setting: Klebsiella 57 USA, agar dilution, read-out: MIC.
Setting [3] is: E. coli 4418, agar dilution, read-out: MIC.
Where [4] appears, read: Proteus 1875, agar dilution, read-out: MIC.
[5] abbreviates: Proteus Vulg. 1017, agar dilution, read-out: MIC.
[6] abbreviates: Klebsiella 63, agar dilution, read-out: MIC.

≈ marks a conversion by molar mass, not a printed value. Read-outs that look alike come from different tables or passages of the source.

Turning to `CC1COc2c(N3CCN(C)CC3)c(F)cc3c(=O)c(C(=O)O)cn1c23` (racemic) [Ofloxacin, reference compound], the MIC with Klebsiella 6318 (setting [1]) came to 0.25 µg/mL (≈ 0.692 µM); in the assay on Proteus 1875 it was 0.125 µg/mL (≈ 0.346 µM); in the assay with Staph. 133 it was 0.5 µg/mL (≈ 1.38 µM); against Pseudomonas Ellsworth, 0.5 µg/mL (≈ 1.38 µM); in the assay on Staph. 1756, 0.5 µg/mL (≈ 1.38 µM); against Staph. F 422, 0.5 µg/mL (≈ 1.38 µM). The MIC in the assay with Klebsiella 57 USA (setting [2]) was 0.25 µg/mL (≈ 0.692 µM); in the assay on E. coli 4418 (setting [3]) it was 0.25 µg/mL (≈ 0.692 µM); in the assay with Proteus Vulg. 1017 it was 0.125 µg/mL (≈ 0.346 µM); against Pseudomonas Walter, 2 µg/mL (≈ 5.53 µM); in the assay with Strepto 9790 it was 2 µg/mL (≈ 5.53 µM); against E. coli T 7, 0.06 µg/mL (≈ 0.166 µM). The minimal inhibitory concentration (MIC) in the assay with Klebsiella 63 (Klebsiella, 63) is 0.125 µg/mL (≈ 0.346 µM); in the assay on E. coli A 261 it was 0.03 µg/mL (≈ 0.083 µM); with Providencia 12012, 0.25 µg/mL (≈ 0.692 µM).
As to `C[C@H]1COc2c(N3CCN(C)CC3)c(F)cc3c(=O)c(C(=O)O)cn1c23` [Example 4, 3S-9-fluoro-3-methyl-10(4-methyl-1-piperazinyl)-7-oxo-7H-pyrido[1,2,3-de][1,4]-benzoxazine-6-carboxylic acid], the MIC with Klebsiella 6318 (Klebsiella, 6318) turned out to be 0.125 µg/mL (≈ 0.346 µM); in the assay on Proteus 1875 (setting [4]), 0.06 µg/mL (≈ 0.166 µM); in the assay with Staph. 133, 0.25 µg/mL (≈ 0.692 µM); against Pseudomonas Ellsworth, 0.25 µg/mL (≈ 0.692 µM); in the assay on Staph. 1756, 0.25 µg/mL (≈ 0.692 µM); in the assay on Staph. F 422, 0.25 µg/mL (≈ 0.692 µM). The MIC worked out at 0.125 µg/mL (≈ 0.346 µM) in the assay with Klebsiella 57 USA (Klebsiella, 57USA); 0.125 µg/mL (≈ 0.346 µM) in the assay on E. coli 4418 (4418); 0.06 µg/mL (≈ 0.166 µM) in the assay with Proteus Vulg. 1017 (setting [5]); 1 µg/mL (≈ 2.77 µM) against Pseudomonas Walter; 1 µg/mL (≈ 2.77 µM) against Strepto 9790; 0.03 µg/mL (≈ 0.083 µM) in the assay with E. coli T 7. Besides, the MIC with Klebsiella 63 (setting [6]) was 0.06 µg/mL (≈ 0.166 µM); with E. coli A 261 it was no more than 0.015 µg/mL; in the assay on Providencia 12012, 0.06 µg/mL (≈ 0.166 µM).
In the case of `C[C@@H]1COc2c(N3CCN(C)CC3)c(F)cc3c(=O)c(C(=O)O)cn1c23` [Example 16, 3R-9-fluoro-3-methyl-10(4-methyl-1-piperazinyl)-7-oxo-7H-pyrido[1,2,3-de][1,4]-benzoxazine-6-carboxylic acid], the MIC in the assay on Klebsiella 6318 (setting [1]) was 4 µg/mL (≈ 11.1 µM); in the assay on Proteus 1875 (setting [4]), 4 µg/mL (≈ 11.1 µM); in the assay with Staph. 133 it was 8 µg/mL (≈ 22.1 µM); against Pseudomonas Ellsworth, 4 µg/mL (≈ 11.1 µM); in the assay with Staph. 1756, 8 µg/mL (≈ 22.1 µM); against Staph. F 422, 16 µg/mL (≈ 44.3 µM). Besides, the MIC with Klebsiella 57 USA (setting [2]) is 4 µg/mL (≈ 11.1 µM); with E. coli 4418 (setting [3]), 2 µg/mL (≈ 5.53 µM); with Proteus Vulg. 1017 (setting [5]), 2 µg/mL (≈ 5.53 µM); against Pseudomonas Walter it was 32 µg/mL (≈ 88.6 µM); in the assay on Strepto 9790 it was 32 µg/mL (≈ 88.6 µM); in the assay on E. coli T 7, 1 µg/mL (≈ 2.77 µM). In addition, the MIC stood at 2 µg/mL (≈ 5.53 µM) with Klebsiella 63 (setting [6]), 0.25 µg/mL (≈ 0.692 µM) in the assay on E. coli A 261 and 4 µg/mL (≈ 11.1 µM) with Providencia 12012.

Values taken from patent US5237060A, “Process of preparing enantiomerically pure 1,8-bridged 4-quinolone-3-carboxylic acids” (Bayer Aktiengesellschaft, priority 1985, dated 1993).
